Data on eight compounds can be found in US20070270432A1, “Novel Method” (priority 2002, published 2007).

The subject of one experiment is hippocampal neurogenesis. As to conditions: literature; antidepressants given chronically; cited from earlier work.
Experiment [1] relates to NCAM PSA-immunoreactive neurons, dentate granule cell layer/hilar border. Briefly: NCAM PSA expression in hippocampal dentate gyrus with water maze training. The experiment is classed as in vivo, rat. As to conditions: chronic 20 mg/kg; for PSA immunopositive cell frequency: Example 4, 40 days by gavage. The protocol: (§1) Experimentally naïve postnatal day 80 (at the time of NCAM-PSA assessment) male Wistar rats were employed in all studies. All animals were housed singly and maintained at 22±2° C. on a standard 12 h-light/dark cycle with food and water available ad libitum. Animals were introduced to the experimental holding rooms at least 3 days prior to the commencement of any study.
(§2) Freshly dissected whole rat brain was carefully coated in optimum cutting temperature (OCT) compound and lowered into a Cryoprep freezing apparatus containing dry-ice-cooled n-hexane. The function of the OCT compound and n-hexane was to provide an even freezing of the tissue, thus avoiding freezing artefacts. Horizontal sections for all studies were cut semi-automatically or automatically on a Microm Series 500 cryostat. Fresh, frozen brain sections (12 μm) were cut at −15° C., while cryoprotected. All sections were prepared on the day of the experiment and were not pre-cut and stored frozen.
(§3) Horizontal cryosections were cut from the frozen tissue at various levels with reference to Bregma (see above), these were thaw-mounted onto glass slides, which were coated with poly-1-lysine diluted 1:1 in dH2O, and immersion fixed for 30 minutes with 70% ethanol. The sections were then washed twice for 10 minutes each in 0.1M phosphate buffered saline (PBS) and incubated for 20 hours in a humidified chamber at room temperature with the primary antibody diluted 1:500 in PBS containing 1% bovin serum albumin (w/v) and 1% normal goat serum (v/v) to reduce non-specific staining. The humidified chamber prevented the sections from evaporating. The primary antibody was a monoclonal raised against PSA, which was provided by Professor G, Rougon (CNRS UMR 6545, 13288 Marseille, France). On completion of the primary antibody incubation, the sections were washed twice for ten minutes each in PBS and incubated at room temperature for 3 hours in the humidified chamber with the secondary antibody, at a dilution factor of 1:100, again in PBS containing 1% BSA and 1% NGS. The secondary antibody was a goat anti-mouse IgM conjugated to fluorescein (FITC). Following the second incubation, the sections ware again washed twice for ten minutes each in PBS, mounted in the fluorescence enhancing medium Citifluor® and observed for fluorescence with a Leitz DM RB fluorescent microscope.
(§4) Quantitative image analysis was performed using the Leica Quantimet 500®, a P.C.-based software package, which was connected to the fluorescence microscope with a high sensitivity CCD video camera. Each microscope lens was calibrated for length and area measurements using a 1 mm graticule. The total number of NCAM PSA-immunoreactive neurons on the right dentate granule cell layer/hilar border were counted in 7 alternate 12 μm sections commencing −5.6 mm from Bregma (Paxinos and Watson, 1986), to preclude double counting of the 5-10 μm perikarya. Cell identification was aided by the use of the nuclear counter-stain propidium iodide (40 ng/ml PBS; 60 sec). The number of cells was then divided by the total area of the dentate granule cell layer and multiplied by the average granule cell layer area for a p80 rat, which is 0.15±0.01 mm^2 at this level. This was done for each section and a mean±SEM was calculated for each brain with the results expressed as PSA-positive cells per unit area. […] Cell identification was again aided by the use of the nuclear counter-stain propidium iodide (40 ng/ml PBS; 60 sec) with the use of alternate sections eliminating the possibility of double counting. Cell counts were divided by the length of the cortex and multiplied by the average length of the cortex, which was taken to be 10 mm. This was completed for each section and a mean±SEM was calculated for each brain with the results expressed as PSA-positive cells per unit length.
In this protocol animals were introduced to the training environment 5 days prior to training, and individually housed according to standard conditions. […]

The test system of experiment [2] is BrdU-immunopositive cells in the hippocampal dentate granule cell layer. Description: BrdU expression in hippocampal dentate granule cell layer (neurogenesis). The class given is in vivo, rat. As for the experimental part: as §1
Experiment [3] relates to NCAM PSA-immunoreactive neurons, dentate granule cell layer/hilar border. Description: NCAM PSA expression in hippocampal dentate gyrus after chronic administration. The class given is in vivo, rat. To be noted: for PSA immunopositive cell frequency: hippocampal dentate. As for the experimental part:
as §1, §2, §3, §4
NCAM PSA-positive cell numbers were obtained from each animal group.

Regarding `CN1CC[C@]23c4c5ccc(O)c4O[C@H]2[C@@H](O)C=C[C@H]3[C@H]1C5` [morphine], in the experiment on hippocampal neurogenesis, the “effect on hippocampal neurogenesis” value is recorded as “reduce the rate of hippocampal neurogenesis”.
`COc1ccc(S(=O)(=O)Nc2cc(Cl)cc(Cl)c2OC)cc1N1CCNCC1.Cl` [SB399885, N-(3,5-dichloro-2-methoxy-phenyl)-4-methoxy-3-piperazin-1-yl-benzenesulfonamide hydrochloride]: the “PSA immunopositive cell frequency” value in experiment [1] (12 h post water maze training) was 125.9 ± 4.7 PSA-positive cells per unit area; in experiment [1] (untrained), 104.2 ± 4.4 PSA-positive cells per unit area; in experiment [3] (Example 3, 3 mg/kg, 40 days by gavage), 81.4 ± 5.3 PSA-positive cells per unit area; in experiment [3] (Example 3, 10 mg/kg, 40 days by gavage), 87.4 ± 5.4 PSA-positive cells per unit area; in experiment [3] (Example 3, 20 mg/kg, 40 days by gavage) it was 104.2 ± 4.4 PSA-positive cells per unit area. The “increase in frequency of hippocampal polysialylated neurons 12 h following water maze training compared with SB271046 of Example 2” value in experiment [1] (Student's t-test P=0.0337) was “significantly greater”. Further, the “effect on frequency of polysialylated neurons at 12 h following water maze training” value in experiment [1] (versus untrained drug-treated and trained drug-naive animals) is listed as “significantly increase”. Further, in experiment [2] (20 mg/kg, 40 days by gavage, BrdU 100 mg/kg i.p. last eight days), the “BrdU-immunopositive cell number/granule cell layer” value turned out to be 2296.7 ± 49.1. Besides, in experiment [2] (chronic 20 mg/kg, versus vehicle-treated controls), the “effect on expression of BrdU-immunopositive cells / neurogenic rate” value is on record as “without altering neurogenic rate”. Further, the “effect on frequency of polysialylated neurons in the subventricular zone of the rat hippocampal dentate gyrus” value in experiment [3] (chronic administration, versus vehicle-treated control) was “significantly increase”. In experiment [3] (chronic treatment, analysis of variance F[1,21]=5.882, P=0.0244), the “dose dependent increase in basal frequency of hippocampal polysialylated neurons compared with SB271046 of Example 1” value is on record as “significantly greater”.
For the compound `NCCc1c[nH]c2ccc(O)cc12` [Serotonin], in the experiment with hippocampal neurogenesis, the “effect on hippocampal neurogenesis” value was “stimulate hippocampal neurogenesis”.
As for `CCOC(=O)[C@H](N)/C=C(\C)CP(=O)(O)O` [CGP43487], the “effect on hippocampal neurogenesis” value in the experiment on hippocampal neurogenesis was “reduce the rate of hippocampal neurogenesis”.
For the compound `CCOc1ccccc1OC(c1ccccc1)C1CNCCO1` (stereo not drawn) [reboxetine], the “effect on hippocampal neurogenesis” value in the experiment with hippocampal neurogenesis is recorded as “stimulate hippocampal neurogenesis”.
In the case of `CNCCC(Oc1ccc(C(F)(F)F)cc1)c1ccccc1` (stereo not drawn) [fluoxetine], the “effect on hippocampal neurogenesis” value in the experiment with hippocampal neurogenesis is listed as “stimulate hippocampal neurogenesis”.
In the case of `CN1CCN(C2=Nc3cc(Cl)ccc3Nc3ccccc32)CC1` [clozapine, reference compound], the “PSA immunopositive cell frequency” value in experiment [3] (Example 1, 5 mg/kg, chronic comparison group) is listed as 69.8 ± 1.6 PSA-positive cells per unit area.
Take `N[C@@H]1C[C@H]1c1ccccc1` (racemic) [tranylcypromine]: in the experiment on hippocampal neurogenesis, the “effect on hippocampal neurogenesis” value is on record as “stimulate hippocampal neurogenesis”.
